Here are results for 2 compounds from ChEMBL document CHEMBL3853265 (Medchemcomm, 2016).

What is called inhibition is the drop in the measured response relative to a control, in per cent. In general, efflux ratio refers to a quotient of directional permeabilities that is used to spot active efflux. The term IC50 denotes the concentration that inhibits the measured activity by half. Higher therefore signals weaker potency in that assay. What is called half-life is how long it takes for the measured level to halve. A high value points to slow loss.

The target of one series is CYP2C9 (Homo sapiens, UniProt P11712). Briefly: Inhibition of CYP2C9 (unknown origin) at 3 uM relative to control. The format is ADME.
Chain of CYP2C9 (P11712 whole entry): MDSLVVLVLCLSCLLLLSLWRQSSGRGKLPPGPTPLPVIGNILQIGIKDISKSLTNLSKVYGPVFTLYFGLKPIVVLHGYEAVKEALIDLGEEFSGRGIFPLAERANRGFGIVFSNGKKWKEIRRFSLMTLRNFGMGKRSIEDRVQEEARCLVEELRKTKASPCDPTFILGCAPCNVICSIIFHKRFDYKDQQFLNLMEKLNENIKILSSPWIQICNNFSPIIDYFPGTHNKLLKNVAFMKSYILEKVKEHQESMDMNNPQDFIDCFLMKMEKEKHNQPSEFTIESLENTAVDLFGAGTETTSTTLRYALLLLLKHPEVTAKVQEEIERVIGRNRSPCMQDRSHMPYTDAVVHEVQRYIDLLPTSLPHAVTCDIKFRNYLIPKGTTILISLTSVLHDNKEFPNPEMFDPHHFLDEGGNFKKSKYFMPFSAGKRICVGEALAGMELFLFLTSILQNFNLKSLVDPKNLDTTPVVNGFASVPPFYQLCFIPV
The next series deals with T1, BCRP (ABCG2) (Homo sapiens, UniProt Q9UNQ0).
T1 sequence (Q9UNQ0 whole entry): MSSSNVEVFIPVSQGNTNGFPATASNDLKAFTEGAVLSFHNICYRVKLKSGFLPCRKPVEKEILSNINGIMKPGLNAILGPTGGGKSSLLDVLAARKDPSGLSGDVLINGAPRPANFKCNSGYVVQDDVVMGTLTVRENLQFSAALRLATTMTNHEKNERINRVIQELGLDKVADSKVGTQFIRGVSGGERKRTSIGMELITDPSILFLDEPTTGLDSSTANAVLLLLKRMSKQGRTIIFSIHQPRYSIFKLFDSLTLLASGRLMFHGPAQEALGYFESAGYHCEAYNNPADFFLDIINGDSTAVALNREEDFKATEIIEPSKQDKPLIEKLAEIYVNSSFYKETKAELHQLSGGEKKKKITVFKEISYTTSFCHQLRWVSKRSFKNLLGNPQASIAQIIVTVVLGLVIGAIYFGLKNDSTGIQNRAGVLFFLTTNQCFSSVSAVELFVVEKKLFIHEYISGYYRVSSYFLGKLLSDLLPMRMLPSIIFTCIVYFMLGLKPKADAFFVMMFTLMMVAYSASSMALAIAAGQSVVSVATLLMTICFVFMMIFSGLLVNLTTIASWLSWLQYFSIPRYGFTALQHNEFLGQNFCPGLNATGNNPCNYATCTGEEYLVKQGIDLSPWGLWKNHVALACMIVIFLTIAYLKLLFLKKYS
Briefly: Substrate activity at BCRP (unknown origin) assessed as efflux ratio of permeability. In kind it is ADME. Conditions: not told; call rule not given here.

A further series addresses T2, Cytochrome P450 2C8 (Homo sapiens, UniProt P10632).
T2 sequence (P10632 whole entry): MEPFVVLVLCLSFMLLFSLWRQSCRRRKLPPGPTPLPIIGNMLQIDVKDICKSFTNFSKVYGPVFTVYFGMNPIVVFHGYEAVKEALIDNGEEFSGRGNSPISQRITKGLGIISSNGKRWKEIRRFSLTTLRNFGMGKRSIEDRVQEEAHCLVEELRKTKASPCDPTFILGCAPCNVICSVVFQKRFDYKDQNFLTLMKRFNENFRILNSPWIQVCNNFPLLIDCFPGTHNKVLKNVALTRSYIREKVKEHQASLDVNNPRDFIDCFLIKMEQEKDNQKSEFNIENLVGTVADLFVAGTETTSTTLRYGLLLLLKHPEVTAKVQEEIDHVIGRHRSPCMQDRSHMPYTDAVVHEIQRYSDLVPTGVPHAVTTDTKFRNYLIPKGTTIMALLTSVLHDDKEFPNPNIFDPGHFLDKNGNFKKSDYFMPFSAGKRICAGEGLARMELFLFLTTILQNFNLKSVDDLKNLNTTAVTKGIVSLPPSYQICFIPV
Description: Inhibition of CYP2C8 (unknown origin). In kind it is ADME.

Another series addresses Cytochrome P450 3A4 (Homo sapiens, UniProt P08684). Description: Inhibition of CYP3A4 (unknown origin). In kind it is ADME.
A short description of series [1]: Cytotoxicity against THLE cells. In kind it is toxicity, cell-based. Particulars: human.
The nature of series [2]: Mutagenicity in […] by Ames test in presence of […]. The format is toxicity. (The Ames test uses bacterial strains that need an amino acid and regain growth without it when mutated back.)
The nature of series [3]: Plasma clearance in dog at 0.363 mg/kg, iv and 0.737 mg/kg, po. The format is ADME, organism-based, Canis lupus familiaris.
Series [4] can be described thus: Unbound clearance in dog at 0.363 mg/kg, iv and 0.737 mg/kg, po. The format is ADME, organism-based, Canis lupus familiaris. Conditions: in vivo.
The nature of series [5]: Half life in dog at 0.363 mg/kg, iv and 0.737 mg/kg, po. Particulars: in vivo. The format is ADME, organism-based, Canis lupus familiaris.
Series [6] can be described thus: Oral bioavailability in dog at 0.737 mg/kg. The format is ADME, organism-based, Canis lupus familiaris. Particulars: in vivo.
Series [7] can be described thus: Drug recovery in bile of bile duct cannulated rat. The format is ADME. Conditions: read-out: Drug recovery.
Series [8] is described as follows: Drug metabolism in human liver microsomes assessed as monooxidation at phenyl and pyridine moieties. The format is ADME.
A short description of series [9]: Drug metabolism in rat liver microsomes assessed as monooxidation at phenyl and pyridine moieties. The format is ADME. (In general: Liver microsomes are a subcellular fraction often used to study metabolism.)
Series [10] in a line: Drug metabolism in human hepatocytes assessed as monooxidation. The format is ADME, cell-based, Hepatocyte.
The nature of series [11]: Drug metabolism in rat hepatocytes assessed as monooxidation. In kind it is ADME, cell-based, Hepatocyte.
Series [12] in a line: Drug metabolism in human hepatocytes assessed as monooxidation and glucuronidation. The format is ADME, cell-based, Hepatocyte.
A short description of series [13]: Drug metabolism in rat hepatocytes assessed as glucuronidation in presence of glutathione. The format is ADME, cell-based, Hepatocyte.
Series [14] in a line: Drug metabolism in rat hepatocytes assessed as glucuronidation in presence of glutathione and water. The format is ADME, cell-based, Hepatocyte.
The nature of series [15]: Drug metabolism in dog hepatocytes. In kind it is ADME, cell-based, Canis lupus familiaris, Hepatocyte.
The test system of series [16] is Rattus norvegicus. Description: Toxicity in Wistar Han rat assessed as increase in liver to body weight ratio at >= 30 mg/kg/day, po administered for 14 days. The format is organism-based. Conditions: in vivo, 336 h.
Series [17] deals with Rattus norvegicus. Briefly: Toxicity in Wistar Han rat assessed as centrilobular hepatocyte hypertrophy at 100 mg/kg/day, po administered for 14 days. In kind it is organism-based. Particulars: hepatocytes, 336 h.
Series [18] in a line: Unbound Cmax in Wistar Han rat at 10 mg/kg, po […] measured on day 14. The format is ADME, organism-based. Particulars: in vivo.
Series [19] can be described thus: Average plasma concentration in Wistar Han rat at 10 mg/kg, po administered as single dose measured on day 14. In kind it is ADME, organism-based. Particulars: in vivo.
Series [20] in a line: Toxicity in po dosed dog assessed as drug tolerance administered as single dose. In kind it is organism-based, Canis lupus familiaris. Conditions: in vivo.
The nature of series [21]: Toxicity in po dosed dog administered as single dose. In kind it is organism-based, Canis lupus familiaris. Particulars: in vivo.
Series [22] is described as follows: Toxicity in dog assessed as increase in body temperature at 10 mg/kg, po administered as single dose. The format is organism-based, Canis lupus familiaris. Conditions: in vivo.
Series [23] can be described thus: Toxicity in dog assessed as transient panting at 10 mg/kg, po administered as single dose measured up to 30 hrs post dose. The format is organism-based, Canis lupus familiaris. Conditions: in vivo.
Series [24] in a line: Toxicity in dog assessed as increase in body temperature at 30 mg/kg, po administered as single dose. In kind it is organism-based, Canis lupus familiaris. Conditions: in vivo.
The nature of series [25]: Toxicity in dog assessed as emesis at 30 mg/kg, po administered as single dose measured 30 mins post dose. In kind it is organism-based, Canis lupus familiaris. Conditions: in vivo, 0.5 h.
Series [26] in a line: Toxicity in dog assessed as uncontrollable panting at 30 mg/kg, po administered as single dose. In kind it is organism-based, Canis lupus familiaris. Conditions: in vivo.
A short description of series [27]: Toxicity in dog assessed as appearance of red mucous membranes of the gum at 30 mg/kg, po administered as single dose. In kind it is organism-based, Canis lupus familiaris. Particulars: in vivo.
Series [28] can be described thus: Unbound Cmax in dog at 10 mg/kg, po administered as single dose. The format is ADME, organism-based, Canis lupus familiaris. Particulars: in vivo.
The nature of series [29]: Plasma clearance in dog at 1 mg/kg, iv and 3 mg/kg, po. The format is ADME, organism-based, Canis lupus familiaris.
The nature of series [30]: Oral bioavailability in dog at 3 mg/kg. In kind it is ADME, organism-based, Canis lupus familiaris. Conditions: in vivo.
Series [31] relates to Rattus norvegicus. Briefly: Toxicity in Wistar Han rat assessed as centrilobular hepatocellular hypertrophy at 100 mg/kg/day, po administered for 14 days. Conditions: in vivo, 336 h. The format is organism-based.
The subject of series [32] is Rattus norvegicus. Description: Toxicity in Wistar Han rat assessed as moribundity at 300 mg/kg, po administered as single dose. Conditions: in vivo. The format is organism-based.
The test system of series [33] is Rattus norvegicus. Briefly: Toxicity in Wistar Han rat assessed as mortality at 300 mg/kg, po administered as single dose. The format is organism-based. Particulars: in vivo.
Series [34] is described as follows: Unbound Cmax in Wistar Han rat at 100 mg/kg, po […] measured on day 14. The format is ADME, organism-based. Particulars: in vivo.

Each structure is given as a SMILES string. Some results are limits rather than exact numbers.

Chain of Cytochrome P450 3A4 (P08684 whole entry): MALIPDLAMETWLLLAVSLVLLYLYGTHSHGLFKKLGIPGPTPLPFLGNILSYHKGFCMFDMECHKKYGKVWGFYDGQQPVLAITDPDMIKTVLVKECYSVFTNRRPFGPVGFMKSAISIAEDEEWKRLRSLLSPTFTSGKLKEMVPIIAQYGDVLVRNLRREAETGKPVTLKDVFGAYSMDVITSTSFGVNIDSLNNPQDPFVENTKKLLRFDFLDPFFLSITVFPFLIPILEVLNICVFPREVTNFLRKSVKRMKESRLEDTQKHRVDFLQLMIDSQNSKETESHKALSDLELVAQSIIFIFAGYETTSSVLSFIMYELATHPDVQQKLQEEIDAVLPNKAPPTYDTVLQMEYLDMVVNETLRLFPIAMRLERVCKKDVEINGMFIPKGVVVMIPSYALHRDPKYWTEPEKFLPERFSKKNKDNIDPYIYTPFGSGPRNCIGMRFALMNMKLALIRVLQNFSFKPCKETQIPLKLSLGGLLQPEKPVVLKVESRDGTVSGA

For `O=S(=O)(Nc1ccc(C(F)(F)F)nc1)c1ccccc1C(F)(F)F`, the inhibition at 3 µM on CYP2C9 was determined as 24%. Besides, the efflux ratio on BCRP (ABCG2) amounted to 3.3. In addition, the IC50 on Cytochrome P450 2C8 and against Cytochrome P450 3A4 was > 30 µM each time. Also, the Activity was 153 µM in series [1]; “Non-Toxic” in [2]; “Non-Toxic” in the series with Rattus norvegicus [16]; “Non-Toxic” with Rattus norvegicus [17]; “<= 30 mg kg-1” in [20]; “Toxic” in [23]. In addition, the Activity result in [25], in series [26] and in series [27] was “Toxic” in each case. For the same compound, the clearance in series [3] is 0.014 mL/min/kg. Further, the CL free in [4] is 1.4 mL/min/kg. The compound further had a half-life in series [5] of 103 h. In addition, in series [6], the bioavailability was found to be 104%. Moreover, the dose excreted in series [7] is < 1%. Moreover, the Drug metabolism result in series [8], in [9], in series [10], in [11], in series [12] and in series [13] was “Metabolite_Detected” throughout. Further, the values for the Drug metabolism result in series [14] and in series [15] were “Metabolite_Detected” and “Metabolite_Notdetected”, respectively. The fCmax in [18] came out at 530 nM; in series [28], 1498 nM. In [19], this compound came in with a Cave of 422 nM. This compound also registered an MTD in series [21] of 100 mg/kg. Further, the values for the deltaT in series [22] and in series [24] were < 0.4 °C and > 1.1 °C, respectively.

As for `O=S(=O)(Nc1cncc(C(F)(F)F)c1)c1ccccc1C(F)(F)F`, the Activity in series [1] is 228 µM; in series [2], “Non-Toxic”; in the series with Rattus norvegicus [31], “Non-Toxic”; in the series on Rattus norvegicus [32], “Toxic”; in the series on Rattus norvegicus [33], “Toxic”. In addition, in [29], the clearance is 1 mL/min/kg. The bioavailability in series [30] turned out to be 145%. Besides, in series [34], the fCmax is reported as 2153 nM.
